Laboratory results taken from patent US20030044800A1, “Drug discovery employing calorimetric target triage” (priority 2000, published 2003).
pKd: −log10 of the molar value.

Experiments:
hexokinase = experiment: Calorimetric deconvolution of a cofactor mixture with hexokinase and glucose; assay type: biochemical; conditions: 5 μL of 20 μM hexokinase into 100 μM glucose and cofactors at 1 mM
Experimental: Hexokinase and glucose were present in each test. Various mixtures of cofactors were added to each test. Only when ATP was present in the mixture was a significant amount of heat generated. 5 μL injections of a 20 μM solution of hexokinase were titrated into a solution of 100 μM glucose and one or more “cofactors”, all at 1 mM concentration. In the initial experiment with the entire library of 15 cofactors present, enzymatic turnover was observed (as in FIG. 12a(ii)). We were then able to successfully separate out the cofactors in subsequent experiments to determine which one was actually necessary to allow the hexokinase to turn over the glucose. […] Only tiny heats of dilution are observed when ATP is absent;

E. coli protein YJEQ = E. coli protein YJEQ (Escherichia coli, UniProt P39286); experiment: Calorimetric titration of GTP-gamma-S into E. coli protein YJEQ; assay type: binding; conditions: 5 μL injections of 11 mM GTP-gamma-S into 2 mL of 385 μM protein
Experimental: 5 μL injections of an 11 mM GTP-gamma-S solution were titrated into 2 mL of a solution containing 385 μM of an E. coli protein for which no function was previously known.

## Nc1ncnc2c1ncn2[C@@H]1O[C@H](COP(=O)(O)OP(=O)(O)OP(=O)(O)O)[C@@H](O)[C@H]1O [ATP]
hexokinase
  heat on injection of hexokinase (cofactor needed for turnover of glucose): large negative heat

## Nc1nc2c(ncn2[C@@H]2O[C@H](COP(=O)(O)OP(=O)(O)OP(O)(O)=S)[C@@H](O)[C@H]2O)c(=O)[nH]1 [GTP-gamma-S]
E. coli protein YJEQ
  pKd: 3.94
